This note sets out measurements from patent publication US10125125B2, “N-(heteroaryl)-sulfonamide derivatives useful as S100-inhibitors” (Active Biotech AB, priority 2013, dated 2018).

Data set [1] can be described thus: Prodrug assay: plasma concentrations of prodrugs and demethylated parents after cassette dosing, LC-MS. In kind it is in vivo, C57 Bl/6 mice. Particulars: C57 Bl/6, mouse, solution, read-out: Parent (demethylated compound) Conc. in plasma after prodrug dosing. As for the experimental part: ABR-239313, 239470 and 239749 were administered to seven C57 Bl/6 mice as a cassette formulation either intravenously (4 animals, nominal 1 mg/kg) or per oral (3 animals, nominal 5 mg/kg).
Blood samples were collected at time points ranging from 5 minutes to 7 hours after administration. After sample withdrawal, plasma was directly separated and frozen until analysis.
The plasma as well as the formulation samples were analyzed with respect to the concentration of ABR-239313, 239470, 239749 and the corresponding demethylated compounds, i.e. Examples 9, 75 and 73 (ABR-239247, 239417 and 239167) by means of LC-MS.
The samples were precipitated with acidified acetonitrile and centrifuged prior to injection on LC-MS system (consisting of a triple quadrupole instrument operated in negative MRM ionization mode, and a fast-gradient reversed-phase LC on a Symmetry Shield RP18, 2×30 mm, 3.5 um column).
In Table 3 the concentrations of each analyte are presented.

Data set [2] concerns the target biotinylated human S100A9 : rhRAGE-Fc interaction (Homo sapiens (Human), UniProt P06702). Description: AlphaScreen inhibition assay, Biot-hS100A9:hRAGE-Fc (S100A9-RAGE inhibition assay). In kind it is binding. The source says: FIG. 1 is a schematic representation of an assay of the inhibition of the interaction between biotinylated human S100A9 and human RAGE-Fc using a small molecule S100A9 binder.
Inhibition Assay, Biot-hS100A9:hRAGE-Fc
The AlphaScreen (Amplified Luminescent Proximity Homogeneous Assay) contains two types of beads, Alpha Donor beads and Acceptor beads (PerkinElmer). Upon laser excitation at 680 nm a photosensitizer in the Donor bead converts ambient oxygen to a more excited singlet state. The singlet oxygen molecule diffuses (maximum 200 nm) to react with a thioxene derivative in the Acceptor bead and generates a chemiluminescence reaction. Fluorophores in the Acceptor bead subsequently emit light at 520-620 nm which can be detected in the EnVision® Multilabel plate Reader (PerkinElmer). The beads are light sensitive and all work with the beads is performed under subdued light conditions or using green filters on light sources (Roscolux Chroma Green #389, Rosco).
In the AlphaScreen Inhibition Assay described here, protein A (Staphylococcus aureus) conjugated Acceptor beads are used together with streptavidin coated Donor beads (Perkin Elmer 6760617M). The Acceptor beads are pre-incubated with Fc-tagged recombinant human RAGE (rhRAGE-Fc) allowing binding of the rhRAGE-Fc to protein A on the beads. Biotinylated human S100A9 (biot-hS100A9) is pre-incubated with the low molecular test compounds. The pre-mixes are then added to the wells of a micro-plate and incubated allowing interaction between biot-hS100A9 and rhRAGE-Fc. Subsequent addition of streptavidin coated Donor beads causes binding of the streptavidin to the biotinylated hS100A9. After an additional incubation the signal is measured.
Without inhibitory compounds, the interaction of biot-hS100A9 to rhRAGE-Fc will bring the Acceptor and Donor beads in close proximity thus generating a high signal. With an inhibitor present the complex will not form resulting in a decreased signal.
Chemicals and reagents. • AlphaScreen® General IgG (Protein A) Detection Kit, (PerkinElmer 6760617M) • HBS-P buffer (GE Healthcare, BR-1003-68) • HBS-N buffer (GE Healthcare, BR-1003-69) • CaCl2 in HBS-P • ZnCl2 in Milli-Q water • DMSO • Biotinylated hS100A9, (biotinylated via cystein by EZ-link Iodoacetyl-PEG2-Biotin reagent (Pierce no. 21334), in HBS-N • rhRAGE-Fc (R&D Systems, 1145-RG-50), in HBS-P
The AlphaScreen assay method is used for screening of the inhibitory effect of different compound samples at fixed concentrations or for IC50 determination by varying the compound concentrations. Samples of test compounds and references are prepared from solutions in DMSO. Relevant reference inhibitors and DMSO are used as controls for defined inhibition and non-inhibition, respectively in the assay. The percent inhibition in assay for test compounds and references are calculated by comparing their obtained assay signals with the signal values for the control with only DMSO (no compound).
Assay concentration of biotinylated hS100A9 and rhRAGE-Fc are batch dependent, and are determined and defined by separate cross-titration experiments using this AlphaScreen inhibition method to verify the optimal setup regarding signal strength and achievement of a defined inhibition with relevant reference compounds. The Final assay concentrations of Acceptor and Donor beads are 20 μg/mL.
Experimental Set Up for Screening, Preparation of Solutions and Beads.
Assay buffer is prepared by adding CaCl2 and ZnCl2 to HBS-P and is used freshly prepared in the experiment.
Biotin-hS100A9 solution for the experiment is prepared by dilution of appropriate amount of stock solution biot-hS100A9 in assay buffer (with CaCl2 and ZnCl2) and incubation in room temperature for 30 minutes.
rhRAGE-Fc solution for the experiment is prepared by dilution appropriate amount of rhRAGE-Fc stock in assay buffer.
Protein A Acceptor beads are diluted in assay buffer and are added to an equal volume of the prepared diluted rhRAGE-Fc solution.

[3] abbreviates: intravenous, i.v. cassette of prodrugs, nominal 1 mg/kg.
[4] abbreviates: oral, p.o. cassette of prodrugs, nominal 5 mg/kg.

pIC50: −log10 of the molar value. Where two headings read alike, the source gives them in different places.

Chain of biotinylated human S100A9 : rhRAGE-Fc interaction (P06702 whole entry): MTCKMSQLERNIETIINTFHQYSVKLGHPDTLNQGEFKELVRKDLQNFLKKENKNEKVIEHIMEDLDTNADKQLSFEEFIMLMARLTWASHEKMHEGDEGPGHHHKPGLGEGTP

Consider `O=S(=O)(Nc1cnc(Cl)cc1O)c1cc(Cl)sc1Cl` [Example 73, 2,5-dichloro-N-(6-chloro-4-hydroxypyridin-3-yl)thiophene-3-sulfonamide], for which, in data set [1] (setting [3]), the concentration at 0.083 h was 89 nM, the concentration at 0.5 h was 200 nM, the concentration at 1 h worked out at 190 nM and the concentration at 2 h was 210 nM. In addition, in data set [1] (setting [3]), the concentration at 4 h was determined as 180 nM and the concentration at 7 h turned out to be 130 nM. In data set [1] (setting [4]), the concentration at 0.5 h came out at 460 nM, the concentration at 1 h was found to be 490 nM, the concentration at 2 h turned out to be 690 nM and the concentration at 4 h worked out at 610 nM. Moreover, in data set [1] (setting [4]), the concentration at 7 h came to 780 nM. Further, in data set [2], the pIC50 was 5.92.
Turning to `O=S(=O)(Cc1cc(Cl)cc(Cl)c1)Nc1ncc(Cl)cc1O` [Example 9, N-(5-chloro-3-hydroxypyridin-2-yl)-1-(3,5-dichlorophenyl)methanesulfonamide], in data set [1] (setting [3]), the concentration at 0.083 h is 44 nM, the concentration at 0.5 h amounted to 5 nM, the concentration at 1 h stood at 3 nM and the concentration at 2 h turned out to be 6 nM. In data set [1] (setting [3]), the concentration at 4 h was found to be 4 nM and the concentration at 7 h came out at 4 nM. For the same molecule, in data set [1] (setting [4]), the concentration at 0.5 h amounted to 45 nM, the concentration at 1 h came out at 26 nM, the concentration at 2 h is 21 nM and the concentration at 4 h is 12 nM. Further, the concentration at 7 h in data set [1] (setting [4]) was 19 nM. For the same molecule, the pIC50 in data set [2] is 6.92.
Consider `O=S(=O)(Cc1ccc(Cl)c(Cl)c1)Nc1ncc(Br)nc1O` [Example 75, N-(5-bromo-3-hydroxypyrazin-2-yl)-1-(3,4-dichlorophenyl)methanesulfonamide], for which, in data set [1] (setting [3]), the concentration at 0.083 h is 120 nM, the concentration at 0.5 h was 320 nM, the concentration at 1 h amounted to 320 nM and the concentration at 2 h was 320 nM. In data set [1] (setting [3]), the concentration at 4 h was 210 nM and the concentration at 7 h turned out to be 200 nM. Also, in data set [1] (setting [4]), the concentration at 0.5 h was 570 nM, the concentration at 1 h came out at 860 nM, the concentration at 2 h was 800 nM and the concentration at 4 h came out at 630 nM. The concentration at 7 h in data set [1] (setting [4]) is 1100 nM. The pIC50 in data set [2] was 6.60.
